Reference: ChEMBL document CHEMBL5212743, “Selectivity Literature for EUbOPEN Chemogenomics Library wave 3” (2023)

Legend:
[1] = molecular target: NT-3 growth factor receptor (Homo sapiens, UniProt Q16288); test: Selectivity interaction (KinomeScan (DiscoverX)) EUB0000341aCl NTRK3; settings: at 1 µM
[2] = molecular target: T1, Alpha-1B adrenergic receptor (Homo sapiens, UniProt P35368); test: Selectivity interaction (Binding assay) EUB0000341aCl ADRA1B
T1 sequence (P35368 whole entry): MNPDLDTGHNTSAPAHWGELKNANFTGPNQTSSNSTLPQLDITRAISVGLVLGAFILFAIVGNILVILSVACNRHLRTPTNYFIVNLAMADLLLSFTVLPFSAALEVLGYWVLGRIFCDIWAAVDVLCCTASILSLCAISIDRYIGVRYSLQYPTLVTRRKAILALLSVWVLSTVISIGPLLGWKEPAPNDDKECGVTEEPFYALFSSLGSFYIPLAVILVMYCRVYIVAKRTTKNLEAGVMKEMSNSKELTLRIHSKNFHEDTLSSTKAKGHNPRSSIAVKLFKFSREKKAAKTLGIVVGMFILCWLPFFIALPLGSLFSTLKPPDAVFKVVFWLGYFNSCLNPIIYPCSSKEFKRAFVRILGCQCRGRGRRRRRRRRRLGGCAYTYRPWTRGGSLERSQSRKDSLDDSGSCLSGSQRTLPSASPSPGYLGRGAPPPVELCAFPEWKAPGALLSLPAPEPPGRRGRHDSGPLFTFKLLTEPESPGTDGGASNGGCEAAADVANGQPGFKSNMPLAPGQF

[3] = molecular target: T2, Alpha-1A adrenergic receptor (Homo sapiens) (UniProt P35348); settings: at 10 µM
T2 sequence (whole entry): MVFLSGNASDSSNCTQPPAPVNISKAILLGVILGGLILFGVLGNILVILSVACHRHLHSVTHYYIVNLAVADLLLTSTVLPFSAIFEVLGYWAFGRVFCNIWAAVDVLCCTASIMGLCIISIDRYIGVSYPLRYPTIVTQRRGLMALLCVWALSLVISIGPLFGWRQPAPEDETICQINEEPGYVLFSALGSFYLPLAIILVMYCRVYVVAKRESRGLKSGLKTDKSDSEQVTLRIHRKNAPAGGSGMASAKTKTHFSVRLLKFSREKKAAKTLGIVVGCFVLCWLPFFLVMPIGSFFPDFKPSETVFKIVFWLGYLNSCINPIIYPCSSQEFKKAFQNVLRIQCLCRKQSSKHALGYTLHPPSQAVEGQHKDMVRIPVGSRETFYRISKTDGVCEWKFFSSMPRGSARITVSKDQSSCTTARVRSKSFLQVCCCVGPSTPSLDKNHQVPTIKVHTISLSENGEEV

[4] = tested on: Tyrosine-protein kinase ABL1 (Homo sapiens), P00519 [T315I]; test: (§1) Selectivity interaction (KinomeScan (DiscoverX)) EUB0000341aCl ABL1; settings: at 1 µM
[5] = tested on: Tyrosine-protein kinase ABL1 (Homo sapiens), P00519 [M351T]; test: as §1; settings: at 1 µM
[6] = tested on: Tyrosine-protein kinase ABL1 (Homo sapiens), P00519 [F317L]; test: as §1; settings: at 1 µM
[7] = molecular target: T3, Alpha-1A adrenergic receptor (Homo sapiens, UniProt P35348); test: Selectivity interaction (Binding assay) EUB0000341aCl ADRA1A
T3 sequence (P35348 whole entry): T2 sequence (whole entry)

[8] = molecular target: Dual specificity tyrosine-phosphorylation-regulated kinase 1B (Homo sapiens, UniProt Q9Y463); test: Selectivity interaction (KinomeScan (DiscoverX)) EUB0000341aCl DYRK1B; settings: at 1 µM
[9] = molecular target: Alpha-1D adrenergic receptor (Homo sapiens) (UniProt P25100); settings: at 10 µM
[10] = molecular target: Mitogen-activated protein kinase 10 (Homo sapiens, UniProt P53779); test: Selectivity interaction (KinomeScan (DiscoverX, competition-binding assay)) EUB0000353a MAPK10
[11] = molecular target: Mitogen-activated protein kinase 8 (Homo sapiens, UniProt P45983); test: Selectivity interaction (KinomeScan (DiscoverX, competition-binding assay)) EUB0000353a MAPK8
[12] = molecular target: Tyrosine-protein kinase BTK (Homo sapiens, UniProt Q06187); test: Selectivity interaction (KinomeScan (DiscoverX, competition-binding assay)) EUB0000353a BTK
Chain of Tyrosine-protein kinase BTK (Q06187 whole entry): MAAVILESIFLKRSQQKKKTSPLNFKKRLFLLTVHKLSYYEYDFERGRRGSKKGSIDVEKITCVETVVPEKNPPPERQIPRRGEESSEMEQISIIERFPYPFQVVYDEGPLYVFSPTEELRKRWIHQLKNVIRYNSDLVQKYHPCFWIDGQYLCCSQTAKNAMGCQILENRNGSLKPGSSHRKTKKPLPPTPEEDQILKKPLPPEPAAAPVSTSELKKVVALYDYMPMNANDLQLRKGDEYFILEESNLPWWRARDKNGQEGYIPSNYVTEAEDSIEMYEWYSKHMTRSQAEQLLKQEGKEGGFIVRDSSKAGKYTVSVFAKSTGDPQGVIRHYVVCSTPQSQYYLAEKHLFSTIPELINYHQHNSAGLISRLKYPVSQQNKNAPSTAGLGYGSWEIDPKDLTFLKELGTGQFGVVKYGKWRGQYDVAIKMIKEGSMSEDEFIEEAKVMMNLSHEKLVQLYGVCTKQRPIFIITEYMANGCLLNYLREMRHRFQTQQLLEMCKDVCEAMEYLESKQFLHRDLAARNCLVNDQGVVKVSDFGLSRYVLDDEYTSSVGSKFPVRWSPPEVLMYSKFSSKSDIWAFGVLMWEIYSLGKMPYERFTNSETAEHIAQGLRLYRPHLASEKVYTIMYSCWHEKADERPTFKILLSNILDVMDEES

Chain of NT-3 growth factor receptor (Q16288 32-839 limits assumed): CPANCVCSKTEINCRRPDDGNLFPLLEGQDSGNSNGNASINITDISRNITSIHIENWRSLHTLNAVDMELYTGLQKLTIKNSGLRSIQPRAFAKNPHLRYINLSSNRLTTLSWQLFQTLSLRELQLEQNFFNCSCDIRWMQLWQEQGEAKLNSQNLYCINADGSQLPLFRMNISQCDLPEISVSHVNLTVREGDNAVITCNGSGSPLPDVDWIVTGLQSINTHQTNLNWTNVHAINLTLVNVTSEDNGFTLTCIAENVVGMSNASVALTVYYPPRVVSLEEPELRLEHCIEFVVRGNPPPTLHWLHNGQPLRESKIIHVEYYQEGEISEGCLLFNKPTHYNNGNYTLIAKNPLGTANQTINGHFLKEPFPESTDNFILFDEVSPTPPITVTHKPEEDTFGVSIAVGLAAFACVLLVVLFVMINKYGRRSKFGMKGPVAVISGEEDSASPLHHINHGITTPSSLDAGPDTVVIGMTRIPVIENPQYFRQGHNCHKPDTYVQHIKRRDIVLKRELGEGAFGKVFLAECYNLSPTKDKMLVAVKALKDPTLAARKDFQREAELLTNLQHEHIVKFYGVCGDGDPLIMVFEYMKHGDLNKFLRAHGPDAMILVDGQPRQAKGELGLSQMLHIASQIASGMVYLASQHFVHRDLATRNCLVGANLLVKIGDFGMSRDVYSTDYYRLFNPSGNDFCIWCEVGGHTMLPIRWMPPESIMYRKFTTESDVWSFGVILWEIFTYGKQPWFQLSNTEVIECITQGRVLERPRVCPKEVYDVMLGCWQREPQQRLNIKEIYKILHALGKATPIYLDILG
Chain of Mitogen-activated protein kinase 10 (P53779 whole entry): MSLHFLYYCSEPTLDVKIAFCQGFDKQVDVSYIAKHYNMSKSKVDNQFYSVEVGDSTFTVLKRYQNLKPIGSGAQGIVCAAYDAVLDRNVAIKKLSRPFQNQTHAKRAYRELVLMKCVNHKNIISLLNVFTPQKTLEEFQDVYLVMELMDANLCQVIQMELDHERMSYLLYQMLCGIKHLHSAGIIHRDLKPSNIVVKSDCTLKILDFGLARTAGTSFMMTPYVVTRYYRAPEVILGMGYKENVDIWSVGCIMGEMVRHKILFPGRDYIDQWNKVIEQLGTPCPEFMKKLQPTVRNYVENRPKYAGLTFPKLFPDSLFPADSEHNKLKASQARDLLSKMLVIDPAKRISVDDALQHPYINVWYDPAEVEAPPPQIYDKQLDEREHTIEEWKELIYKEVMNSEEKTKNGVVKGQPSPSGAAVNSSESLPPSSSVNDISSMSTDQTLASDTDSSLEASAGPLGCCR
Chain of Alpha-1D adrenergic receptor (Homo sapiens) (P25100 whole entry): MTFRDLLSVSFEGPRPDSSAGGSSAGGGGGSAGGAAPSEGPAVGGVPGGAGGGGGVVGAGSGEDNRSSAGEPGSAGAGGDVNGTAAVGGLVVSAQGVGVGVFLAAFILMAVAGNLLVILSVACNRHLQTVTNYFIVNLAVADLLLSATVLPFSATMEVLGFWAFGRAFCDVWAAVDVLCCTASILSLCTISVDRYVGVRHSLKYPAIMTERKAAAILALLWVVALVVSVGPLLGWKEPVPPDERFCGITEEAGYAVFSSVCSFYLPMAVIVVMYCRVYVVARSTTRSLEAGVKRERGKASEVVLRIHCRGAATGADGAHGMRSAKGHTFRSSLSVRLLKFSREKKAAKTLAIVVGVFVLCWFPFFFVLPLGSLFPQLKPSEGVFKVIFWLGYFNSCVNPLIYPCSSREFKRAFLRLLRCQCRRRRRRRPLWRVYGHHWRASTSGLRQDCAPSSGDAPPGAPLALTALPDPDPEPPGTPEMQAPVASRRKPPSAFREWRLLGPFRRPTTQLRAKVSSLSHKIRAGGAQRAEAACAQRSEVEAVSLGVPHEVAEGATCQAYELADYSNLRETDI
Chain of Mitogen-activated protein kinase 8 (P45983 whole entry): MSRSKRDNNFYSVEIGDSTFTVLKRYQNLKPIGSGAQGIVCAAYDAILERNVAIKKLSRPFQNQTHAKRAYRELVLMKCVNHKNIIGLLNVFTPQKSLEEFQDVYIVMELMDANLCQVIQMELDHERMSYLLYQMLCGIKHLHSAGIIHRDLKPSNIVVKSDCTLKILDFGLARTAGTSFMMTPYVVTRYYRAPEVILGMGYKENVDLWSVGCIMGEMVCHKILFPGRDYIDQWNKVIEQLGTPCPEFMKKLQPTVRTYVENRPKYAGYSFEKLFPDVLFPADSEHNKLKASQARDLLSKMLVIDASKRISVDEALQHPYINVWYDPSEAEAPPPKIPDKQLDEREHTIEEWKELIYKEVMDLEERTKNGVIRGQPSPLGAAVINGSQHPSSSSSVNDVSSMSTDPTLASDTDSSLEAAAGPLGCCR
Chain of Dual specificity tyrosine-phosphorylation-regulated kinase 1B (Q9Y463 whole entry, looked up): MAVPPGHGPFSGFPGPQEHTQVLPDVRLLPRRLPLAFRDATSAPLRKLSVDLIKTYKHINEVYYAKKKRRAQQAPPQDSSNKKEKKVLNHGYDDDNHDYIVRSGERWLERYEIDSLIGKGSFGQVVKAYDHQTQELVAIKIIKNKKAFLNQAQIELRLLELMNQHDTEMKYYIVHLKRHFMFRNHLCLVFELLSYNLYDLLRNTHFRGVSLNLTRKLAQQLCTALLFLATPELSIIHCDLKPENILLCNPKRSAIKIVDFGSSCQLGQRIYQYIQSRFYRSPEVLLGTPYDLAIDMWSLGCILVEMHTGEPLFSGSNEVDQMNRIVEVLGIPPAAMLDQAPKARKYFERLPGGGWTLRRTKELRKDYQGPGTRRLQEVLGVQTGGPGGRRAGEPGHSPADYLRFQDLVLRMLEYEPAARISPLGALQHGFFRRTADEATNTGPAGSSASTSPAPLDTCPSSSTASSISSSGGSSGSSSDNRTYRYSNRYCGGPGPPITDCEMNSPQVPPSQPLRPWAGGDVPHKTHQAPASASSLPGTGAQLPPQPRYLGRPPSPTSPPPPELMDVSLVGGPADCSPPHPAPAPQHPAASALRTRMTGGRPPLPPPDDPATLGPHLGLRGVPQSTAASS

% of control [1] [%]	IC50 [2] [µM]	% of inhibition [3] [%]	% of control [4] [%]	% of control [5] [%]	% of control [6] [%]	IC50 [7] [µM]	% of control [8] [%]	% of inhibition [9] [%]	Kd [10] [µM]	Kd [11] [µM]	Kd [12] [µM]	SMILES
0	1.2	55	0	0	0	2.7	37	61	–	–	–	C[C@@H](c1cccc(C#N)c1)n1cc(Cl)cc(C(N)=O)c1=N
–	–	–	–	–	–	–	–	–	> 30	19	27	CN(C)[C@@H]1CCN(c2cc(-c3ccccc3)nc3ccnn23)C1 [(R)-ZINC-3573]
